The values that follow come from ChEMBL document CHEMBL1129090, “Potent fluoromethyl ketone inhibitors of recombinant human calpain I” (Bioorg Med Chem Lett, 1996).

*1 amine or outer side, *2 acyl side, *3 side chain or, on linkers, in order; H or OH if unused. Where a SMILES comes first, the peptide text is derived from it. [ ]: non-standard residue; d: D form. The star is where a group is joined. ξ: configuration not given here. ξF = NC(Cc1ccccc1)C(=O)O; Cbz = O=C(OCc1ccccc1)*; Boc = CC(C)(C)OC(=O)*; CO = O=C([*:1])[*:2]; NHBn = c1ccc(CN*)cc1; ξAbu = CCC(N)C(=O)O; CH2F = FC*

The target in the assay is T1, Calpain-1 catalytic subunit (Homo sapiens) (UniProt P07384).
T1 sequence (whole entry): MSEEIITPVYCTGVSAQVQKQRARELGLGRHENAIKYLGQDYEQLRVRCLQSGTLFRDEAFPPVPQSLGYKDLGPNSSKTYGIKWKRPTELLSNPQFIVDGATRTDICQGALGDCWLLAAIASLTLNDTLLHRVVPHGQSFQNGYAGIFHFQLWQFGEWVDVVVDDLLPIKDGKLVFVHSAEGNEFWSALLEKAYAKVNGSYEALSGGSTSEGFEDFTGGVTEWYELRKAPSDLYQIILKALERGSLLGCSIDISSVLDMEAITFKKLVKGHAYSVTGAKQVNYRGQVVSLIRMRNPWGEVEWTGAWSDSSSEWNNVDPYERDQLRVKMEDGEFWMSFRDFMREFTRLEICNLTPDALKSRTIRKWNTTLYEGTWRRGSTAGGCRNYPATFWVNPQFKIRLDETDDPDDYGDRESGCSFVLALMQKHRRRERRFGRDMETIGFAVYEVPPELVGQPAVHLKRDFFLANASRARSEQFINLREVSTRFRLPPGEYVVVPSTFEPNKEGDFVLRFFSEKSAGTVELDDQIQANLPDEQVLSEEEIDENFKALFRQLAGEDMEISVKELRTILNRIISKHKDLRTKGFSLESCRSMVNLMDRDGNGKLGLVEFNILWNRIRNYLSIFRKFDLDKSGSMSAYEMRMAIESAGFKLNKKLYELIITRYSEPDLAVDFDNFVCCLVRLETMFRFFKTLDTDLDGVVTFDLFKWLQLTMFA
Briefly: Compound was tested for inhibitory activity against recombinant human Calpain 1.
For `CC(C)C[C@H](NC(=O)[C@H]1O[C@@H]1C(=O)O)C(=O)NCCCCN=C(N)N`, the K obs / 1 came to 4700 M⁻¹ s⁻¹. For `CC(C)C[C@H](NS(=O)(=O)N1CCOCC1)C(=O)NC(Cc1ccccc1)C(=O)CF` (stereo partly specified) the value was 67200 M⁻¹ s⁻¹; for `CC(C)C[C@H](NC(=O)OC(C)(C)C)C(=O)NC(Cc1ccccc1)C(=O)CF` (stereo partly drawn) (Boc-Leu-[ξF]-CH2F), 68600 M⁻¹ s⁻¹; for `CCC(NC(=O)[C@H](CC(C)C)NC(=O)OCc1ccccc1)C(=O)CF` (stereo partly drawn) (Cbz-Leu-[ξAbu]-CH2F), 24200 M⁻¹ s⁻¹. On to `CC(C)C[C@H](NC(=O)OCc1ccccc1)C(=O)NC(Cc1ccccc1)C(=O)CF` (stereo partly drawn) (Cbz-Leu-[ξF]-CH2F), for which the K obs / 1 was found to be 136000 M⁻¹ s⁻¹.

For `CC(C)C[C@H](NC(=O)NCc1ccccc1)C(=O)NC(Cc1ccccc1)C(=O)CF` (stereo partly specified) ({NHBn-CO}-Leu-[ξF]-CH2F), the K obs / 1 came out at 67200 M⁻¹ s⁻¹.
